Structures are written as SMILES. Structures can show the parent of a compound that is named as a salt. Where only a bound is given, the exact number is not on record here.

Usually melting point stands for the temperature of the solid-liquid transition. As for `CC1(C)CN=C(SCC2=CSC3=NCc4ccccc4CN23)N1` (as salt: hydrochloride) [Example 8, 3-(((5,5-dimethyl-4,5-dihydro-1H-imidazol-2-yl)thio)methyl)-5,10-dihydrobenzo[e]thiazolo[3,2-a][1,3]diazepine dihydrochloride], the melting point lay within 244 to 247 °C.

The compound `C1=C(CSC2=NCc3ccccc3N2)N2Cc3ccccc3CN=C2S1` (as salt: hydrochloride) [Example 11, 3-(((3,4-dihydroquinazolin-2-yl)thio)methyl)-5,10-dihydrobenzo[e]thiazolo[3,2-a][1,3]diazepine dihydrochloride] came in with a melting point of 189 to 193 °C.

As for `C1=C(CSC2=NCc3ccccc3N2)N2Cc3ccccc3N=C2S1` (as salt: hydrochloride) [Example 12, 3-(((1,4-dihydroquinazolin-2-yl)thio)methyl)-5H-thiazolo[2,3-b]quinazoline dihydrochloride], the melting point was over 250 °C.

`C1=C(CSC2=NCc3ccccc3N2)N2CC(C3CCCCC3)N=C2S1` (stereo not drawn) (as salt: hydrochloride) [Example 15, 6-cyclohexyl-3-(((3,4-dihydroquinazolin-2-yl)thio)methyl)-5,6-dihydroimidazo[2,1-b]thiazole dihydrochloride]: the melting point is 235 to 242 °C.

`Fc1cccc2c1CN1C(CSC3=NCc4ccccc4N3)=CSC1=N2` (as salt: hydrochloride) [Example 18, 3-(((3,4-dihydroquinazolin-2-yl)thio)methyl)-6-fluoro-5H-thiazolo[2,3-b]quinazoline dihydrochloride] gave a melting point of 193 to 203 °C.

`CC1(C)N=C(SCC2=CSC3=NCc4ccccc4CN23)Nc2ccccc21` (as salt: hydrochloride) [Example 21, 3-(((4,4-dimethyl-1,4-dihydroquinazolin-2-yl)thio)methyl)-5,10-dihydrobenzo[e]thiazolo[3,2-a][1,3]diazepine dihydrochloride]: the melting point was over 250 °C.

Turning to `Fc1cccc2c1CN=C(SCC1=CSC3=NCc4ccccc4CN13)N2` (as salt: hydrochloride) [Example 23, 3-(((5-fluoro-1,4-dihydroquinazolin-2-yl)thio)methyl)-5,10-dihydrobenzo[e]thiazolo[3,2-a][1,3]diazepine dihydrochloride], the melting point is over 240 °C.

The compound `C1=C(CSC2=N[C@@H](c3ccccc3)[C@H](c3ccccc3)N2)N2Cc3ccccc3CN=C2S1` (as salt: hydrochloride) [Example 24, 3-((((4S,5S)-4,5-diphenyl-4,5-dihydro-1H-imidazol-2-yl)thio)methyl)-5,10-dihydrobenzo[e]thiazolo[3,2-a][1,3]diazepine dihydrochloride] showed a melting point of 178 to 185 °C.

Consider `C1=C(CSC2=NCCc3ccccc3N2)N2Cc3ccccc3CN=C2S1` (as salt: hydrochloride) [Example 25, 3-(((4,5-dihydro-1H-benzo[d][1,3]diazepin-2-yl)thio)methyl)-5,10-dihydrobenzo[e]thiazolo[3,2-a][1,3]diazepine dihydrochloride], for which the melting point is over 250 °C.

`C1=C(CSC2=NCC(C3CCCCC3)N2)N2Cc3ccccc3CN=C2S1` (stereo not drawn) (as salt: hydrochloride) [Example 26, 3-(((4-cyclohexyl-4,5-dihydro-1H-imidazol-2-yl)thio)methyl)-5,10-dihydrobenzo[e]thiazolo[3,2-a][1,3]diazepine dihydrochloride] showed a melting point of 174 to 180 °C.

The compound `C1=C(CSC2=Nc3ccccc3C(c3ccccc3)N2)N2Cc3ccccc3CN=C2S1` (stereo not drawn) (as salt: hydrochloride) [Example 27, 3-(((4-phenyl-3,4-dihydroquinazolin-2-yl)thio)methyl)-5,10-dihydrobenzo[e]thiazolo[3,2-a][1,3]diazepine dihydrochloride] gave a melting point of 203 to 210 °C.

With `C1=C(CSC2=NCc3ccccc3N2)N2Cc3cccnc3N=C2S1` (as salt: hydrochloride) [Example 28, 3-(((3,4-dihydroquinazolin-2-yl)thio)methyl)-5H-pyrido[2,3-d]thiazolo[3,2-a]pyrimidine trihydrochloride], the melting point is 180 to 190 °C.

As to `CCCCC1CN=C(SCC2=CSC3=Nc4ccccc4CN23)N1` (stereo not drawn) (as salt: hydrochloride) [Example 29, 3-(((5-butyl-4,5-dihydro-1H-imidazol-2-yl)thio)methyl)-5H-thiazolo[2,3-b]quinazoline dihydrochloride], the melting point lay in the range of 227 to 234 °C.

In the case of `CC1(c2ccccc2)CN=C(SCC2=CSC3=NCc4ccccc4CN23)N1` (stereo not drawn) (as salt: hydrochloride) [Example 30, 3-(((5-methyl-5-phenyl-4,5-dihydro-1H-imidazol-2-yl)thio)methyl)-5,10-dihydrobenzo[e]thiazolo[3,2-a][1,3]diazepine dihydrochloride], the melting point was in the range of 195 to 200 °C.

`C1=C(CSC2=N[C@@H]3CCCC[C@H]3N2)N2Cc3ccccc3N=C2S1` (as salt: hydrochloride) [Example 32, 3-((((3aR,7aR)-3a,4,5,6,7,7a-hexahydro-1H-benzo[d]imidazol-2-yl)thio)methyl)-5H-thiazolo[2,3-b]quinazoline dihydrochloride] gave a melting point of over 250 °C.

As to `C1=C(CSC2=NCC(Cc3ccccc3)N2)N2Cc3ccccc3N=C2S1` (stereo not drawn) (as salt: hydrochloride) [Example 33, 3-(((5-benzyl-4,5-dihydro-1H-imidazol-2-yl)thio)methyl)-5H-thiazolo[2,3-b]quinazoline dihydrochloride], the melting point was over 250 °C.

For the compound `COc1ccc(CC2(C)CN=C(SCC3=CSC4=NCc5ccccc5CN34)N2)cc1` (stereo not drawn) (as salt: hydrochloride) [Example 34, 3-(((5-(4-methoxybenzyl)-5-methyl-4,5-dihydro-1H-imidazol-2-yl)thio)methyl)-5,10-dihydrobenzo[e]thiazolo[3,2-a][1,3]diazepine dihydrochloride], the melting point was 173 to 180 °C.

In turn, `C1=C(CSC2=NCc3ccccc3N2)N2CCc3ccccc3N=C2S1` (as salt: hydrochloride) [Example 35, 3-(((3,4-dihydroquinazolin-2-yl)thio)methyl)-5,6-dihydrobenzo[d]thiazolo[3,2-a][1,3]diazepine dihydrochloride] returned a melting point of 248 to 249 °C.

`CN1CCN=C1SCC1=CSC2=Nc3ccccc3CN12` (as salt: hydrochloride) [Example 36, 3-(((1-methyl-4,5-dihydro-1H-imidazol-2-yl)thio)methyl)-5H-thiazolo[2,3-b]quinazoline dihydrochloride] returned a melting point of 247 to 248 °C.

As for `CCCCN1CCN=C1SCC1=CSC2=NCc3ccccc3CN12` (as salt: hydrochloride) [Example 37, 3-(((1-butyl-4,5-dihydro-1H-imidazol-2-yl)thio)methyl)-5,10-dihydrobenzo[e]thiazolo[3,2-a][1,3]diazepine dihydrochloride], the melting point lay within 206 to 212 °C.

The compound `CC1(c2ccccc2)CN2C(CSC3=NCc4ccccc4N3)=CSC2=N1` (stereo not drawn) (as salt: hydrochloride) [Example 38, 3-(((3,4-dihydroquinazolin-2-yl)thio)methyl)-6-methyl-6-phenyl-5,6-dihydroimidazo[2,1-b]thiazole dihydrochloride] registered a melting point of 230 to 235 °C.

On to `C1=C(CSC2=NCc3ccccc3N2)N2C(=Nc3ccccc3C2c2ccccc2)S1` (stereo not drawn) (as salt: hydrochloride) [Example 43, 3-(((3,4-dihydroquinazolin-2-yl)thio)methyl)-5-phenyl-5H-thiazolo[2,3-b]quinazoline dihydrochloride], for which the melting point is 184 to 190 °C.

In the case of `COc1ccc(CC2(C)CN3C(CSC4=NCc5ccccc5N4)=CSC3=N2)cc1` (stereo not drawn) (as salt: hydrochloride) [Example 46, 3-(((3,4-dihydroquinazolin-2-yl)thio)methyl)-6-(4-methoxybenzyl)-6-methyl-5,6-dihydroimidazo[2,1-b]thiazole dihydrochloride], the melting point fell in the range of 156 to 168 °C.

`c1ccc(CC2CN=C(SCCN3CCCCC3)N2)cc1` (stereo not drawn) (as salt: hydrochloride) [Example 50, 1-(2-((5-benzyl-4,5-dihydro-1H-imidazol-2-yl)thio)ethyl)piperidine dihydrochloride] yielded a melting point of 50 to 60 °C.

`CN1CCCC1CSC1=NCC(Cc2ccccc2)N1` (stereo not drawn) (as salt: hydrochloride) [Example 53, 5-benzyl-2-(((1-methylpyrrolidin-2-yl)methyl)thio)-4,5-dihydro-1H-imidazole dihydrochloride] yielded a melting point of 70 to 80 °C.

`c1ccc(CC2CN=C(SCCN3CCCCCC3)N2)cc1` (stereo not drawn) (as salt: hydrochloride) [Example 58, 1-(2-((5-benzyl-4,5-dihydro-1H-imidazol-2-yl)thio)ethyl)azepane dihydrochloride] had a melting point of 65 to 85 °C.

Consider `C1=C(CSC2=NCc3ccccc3N2)N2CC(Cc3cccs3)N=C2S1` (stereo not drawn) (as salt: hydrochloride) [Example 63, 3-(((3,4-dihydroquinazolin-2-yl)thio)methyl)-6-(thiophen-2-ylmethyl)-5,6-dihydroimidazo[2,1-b]thiazole dihydrochloride], for which the melting point lay within 215 to 220 °C.

For `C1=C(CSC2=NCc3ccccc3N2)N2CC(Cc3ccccc3)N=C2S1` (stereo not drawn) (as salt: hydrochloride) [Example 65, 6-benzyl-3-(((3,4-dihydroquinazolin-2-yl)thio)methyl)-5,6-dihydroimidazo[2,1-b]thiazole dihydrochloride], the melting point lay within 142 to 148 °C.

`c1ccc2c(c1)CN(CCSC1=NCc3ccccc3N1)C2` (as salt: hydrochloride) [Example 71, 2-((2-(isoindolin-2-yl)ethyl)thio)-3,4-dihydroquinazoline dihydrochloride]: the melting point lay within 134 to 138 °C.

Take `CC1(C)N=C(SCC2=CSC3=Nc4cccc(F)c4CN23)Nc2ccccc21` (as salt: hydrochloride) [Example 73, 3-(((4,4-dimethyl-1,4-dihydroquinazolin-2-yl)thio)methyl)-6-fluoro-5H-thiazolo[2,3-b]quinazoline dihydrochloride]: the melting point was in the range of 190 to 194 °C.

The values are drawn from patent publication US20240018125A1, “CYCLIC ISOTHIOUREA DERIVATIVES AS CXCR4 MODULATORS” (ERMIUM THERAPEUTICS, priority 2020, published 2024).
